Test results: patent US11554171B2, “Compounds and methods for the targeted degradation of bromodomain-containing proteins” (Arvinas Operations, Inc., priority 2015, dated 2023)

System: c-myc in 22RV-1 cells
Assay: Human c-myc ELISA assay
Assay type: cell-based
Conditions: Homo sapiens; for Emax: 22Rv1, 18 h, read-out: Degradation of BRD4: Maximum inhibition (%) c-Myc ELISA in 22RV1 cells; for DC50: 22Rv1, read-out: Degradation of BRD4: DC50 (uM) c-Myc ELISA in 22RV1 cells
Outline: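 c-myc levels measured by ELISA in RIPA lysates of 22RV-1 cells, calibrated with a 333-0 pg/ml standard curve. Lysates came from cells exposed for 18 h to an 8-point, 1:3 dose series starting at 300 nM or 1 μM final in 0.1% DMSO. Suppression potency given as DC50.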

Row | DC50 [µM] | SMILES | Emax [%]
1 | < 0.01 | Cc1ncsc1-c1ccc([C@H](C)NC(=O)[C@@H]2C[C@@H](O)CN2C(=O)[C@H](C(C)C)n2cc(-c3ccnc(N4CC[C@H](NC(=O)C[C@@H]5N=C(c6ccc(Cl)cc6)c6c(sc(C)c6C)-n6c(C)nnc65)C4)c3)cn2)cc1 [Example 264] | 97
2 | < 0.01 | Cc1ncsc1-c1ccc([C@H](C)NC(=O)[C@@H]2C[C@@H](O)CN2C(=O)[C@@H](NC(=O)COCCCOCCCCOc2ccc3c(c2)c2c(C(N)=O)cc(-c4c(C)noc4C)cc2n3Cc2ccccc2)C(C)(C)C)cc1 [Example 166] | 97
3 | > 1 | Cc1sc2c(c1C)C(c1ccc(Cl)cc1)=N[C@@H](CC(=O)N[C@H]1C[C@@H](Oc3cccc(-c4cnn([C@@H](C(=O)N5C[C@H](O)C[C@H]5C(=O)N[C@@H](C)c5ccc(-n6ccnc6C)cc5)C(C)C)c4)c3)C1)c1nnc(C)n1-2 [Example 298] | 25.5
4 | < 0.01 | Cc1ncsc1-c1ccc([C@H](C)NC(=O)[C@@H]2C[C@@H](O)CN2C(=O)[C@@H](NC(=O)CCc2ccnc(O[C@H]3C[C@H](NC(=O)C[C@@H]4N=C(c5ccc(Cl)cc5)c5c(sc(C)c5C)-n5c(C)nnc54)C3)c2)C(C)(C)C)cc1 [Example 192] | 93
5 | < 0.01 | Cc1ncsc1-c1ccc([C@H](C)NC(=O)[C@@H]2C[C@@H](O)CN2C(=O)[C@@H](NC(=O)COc2cc(F)cc(O[C@H]3C[C@@H](NC(=O)C[C@@H]4N=C(c5ccc(Cl)cc5)c5c(sc(C)c5C)-n5c(C)nnc54)C3)c2)C(C)(C)C)cc1 [Example 209] | 90
6 | 0.1 to 1 | CC(=O)N[C@H](C(=O)N1C[C@H](O)C[C@H]1C(=O)NCc1ccc(-c2scnc2C)cc1OCCCOc1ccc(C2=N[C@@H](CC(=O)Nc3ccccc3)c3nnc(C)n3-c3sc(C)c(C)c32)cc1)C(C)(C)C [Example 155] | 65.5
7 | 0.01 to 0.1 | Cc1ncoc1-c1ccc([C@H](C)NC(=O)[C@@H]2C[C@@H](O)CN2C(=O)C(C(C)C)n2cc(-c3cccc(O[C@H]4C[C@@H](NC(=O)C[C@@H]5N=C(c6ccc(Cl)cc6)c6c(sc(C)c6C)-n6c(C)nnc65)C4)c3)cn2)cc1 (stereo partly drawn) [Example 286] | 93
8 | 0.1 to 1 | Cc1sc2c(c1C)C(c1ccc(Cl)cc1)=N[C@@H](CC(=O)N[C@H]1C[C@@H](Oc3cc(-c4cnn([C@H](C(=O)N5C[C@H](O)C[C@H]5C(=O)N[C@@H](C)c5ccc(-n6ccnc6C)cc5)C(C)C)c4)ccn3)C1)c1nnc(C)n1-2 [Example 289] | 93.8
9 | 0.01 to 0.1 | Cc1ncsc1-c1ccc([C@H](C)NC(=O)[C@@H]2C[C@@H](O)CN2C(=O)[C@@H](NC(=O)CN2CCN(C3CC4(C3)CN(C(=O)C[C@@H]3N=C(c5ccc(Cl)cc5)c5c(sc(C)c5C)-n5c(C)nnc53)C4)[C@@H](C)C2)C(C)(C)C)cc1 [Example 354, (2S,4R)-1-[(2S)-2-{2-[(3S)-4-(2-{2-[(9S)-7-(4-chlorophenyl)-4,5,13-trimethyl-3-thia-1,8,11,12-tetraazatricyclo[8.3.0.0^2,^6]trideca-2(6),4,7,10,12-pentaen-9-yl]acetyl}-2-azaspiro[3.3]heptan-6-yl)-3-methyl-piperazin-1-yl]acetamido}-3,3-dimethylbutanoyl]-4-hydroxy-N-[(1S)-1-[4-(4-methyl-1,3-thiazol-5-yl)phenyl]ethyl]pyrrolidine-2-carboxamide] | 100

Further lines, the compound ahead of its results:

Row | SMILES | DC50 [µM] | Emax [%]
10 | Cc1ncsc1-c1ccc(CNC(=O)[C@@H]2C[C@@H](O)CN2C(=O)[C@@H](NC(=O)Cc2cccc(OCCCNC(=O)C[C@@H]3N=C(c4ccc(Cl)cc4)c4c(sc(C)c4C)-n4c(C)nnc43)c2)C(C)(C)C)cc1 [Example 61, (2S,4R)-1-[(2S)-2-{2-[3-(3-{2-[(9S)-7-(4-chlorophenyl)-4,5,13-trimethyl-3-thia-1,8,11,12-tetraazatricyclo[8.3.0.0^2,^6]trideca-2(6),4,7,10,12-pentaen-9-yl]acetamido}propoxy)phenyl]acetamido}-3,3-dimethylbutanoyl]-4-hydroxy-N-{[4-(4-methyl-1,3-thiazol-5-yl)phenyl]methyl}pyrrolidine-2-carboxamide] | 0.01 to 0.1 | 96
11 | Cc1ncsc1-c1ccc(CNC(=O)[C@@H]2C[C@@H](O)CN2C(=O)[C@@H](NC(=O)COCCCOCCOc2cc(NC(=O)C[C@@H]3N=C(c4ccc(Cl)cc4)c4c(sc(C)c4C)-n4c(C)nnc43)ccc2F)C(C)(C)C)cc1 [Example 130] | < 0.01 | 99
12 | Cc1ncsc1-c1ccc([C@H](C)NC(=O)[C@@H]2C[C@@H](O)CN2C(=O)[C@@H](NC(=O)[C@@H](C)OCCCOCCNC(=O)C[C@@H]2N=C(c3ccc(Cl)cc3)c3c(sc(C)c3C)-n3c(C)nnc32)C(C)(C)C)cc1 [Example 154] | < 0.01 | 94.5
13 | Cc1ncsc1-c1ccc(CNC(=O)[C@@H]2C[C@@H](O)CN2C(=O)[C@@H](NC(=O)COCC#CC#CCOc2ccc([C@@H](C)NC(=O)C[C@@H]3N=C(c4ccc(Cl)cc4)c4c(sc(C)c4C)-n4c(C)nnc43)cc2)C(C)(C)C)cc1 [Example 43, (2S,4R)-1-[(2S)-2-{2-[(6-{4-[(1R)-1-{2-[(9S)-7-(4-chlorophenyl)-4,5,13-trimethyl-3-thia-1,8,11,12-tetraazatricyclo[8.3.0.0^2,^6]trideca-2(6),4,7,10,12-pentaen-9-yl]acetamido}ethyl]phenoxy}hexa-2,4-diyn-1-yl)oxy]acetamido}-3,3-dimethylbutanoyl]-4-hydroxy-N-{[4-(4-methyl-1,3-thiazol-5-yl)phenyl]methyl}pyrrolidine-2-carboxamide] | 0.01 to 0.1 | 100
14 | [2H]C([2H])([2H])C([C@H](NC(=O)c1cc2cc(O[C@H]3C[C@@H](NC(=O)C[C@@H]4N=C(c5ccc(Cl)cc5)c5c(sc(C)c5C)-n5c(C)nnc54)C3)ccc2o1)C(=O)N1C[C@H](O)C[C@H]1C(=O)N[C@@H](C)c1ccc(-c2scnc2C)cc1)(C([2H])([2H])[2H])C([2H])([2H])[2H] [Example 364, (2S,4R)-1-[(2S)-3,3-bis(^2H3)methyl-2-({5-[(1,3-cis)-3-{2-[(9S)-7-(4-chlorophenyl)-4,5,13-trimethyl-3-thia-1,8,11,12-tetraazatricyclo[8.3.0.0^2,^6]trideca-2(6),4,7,10,12-pentaen-9-yl]acetamido}cyclobutoxy]-1-benzofuran-2-yl}formamido)(4,4,4-^2H3)butanoyl]-4-hydroxy-N-[(1S)-1-[4-(4-methyl-1,3-thiazol-5-yl)phenyl]ethyl]pyrrolidine-2-carboxamide] | < 0.01 | 100
15 | Cc1ncsc1-c1ccc(CNC(=O)C2C[C@@H](O)CN2C(=O)[C@@H](NC(=O)COCCCOCCOc2cccc(NC(=O)C[C@@H]3N=C(c4ccc(Cl)cc4)c4c(sc(C)c4C)-n4c(C)nnc43)c2)C(C)(C)C)cc1 (stereo partly drawn) [Example 94] | < 0.01 | 98.5
16 | CNC[C@H](NC(=O)[C@@H]1C[C@@H](O)CN1C(=O)[C@@H](NC(=O)COCCCOCCNC(=O)C[C@@H]1N=C(c2ccc(Cl)cc2)c2c(sc(C)c2C)-n2c(C)nnc21)C(C)(C)C)c1ccc(-c2scnc2C)cc1 [Example 110] | > 1 | 7.14
17 | Cc1ncsc1-c1ccc([C@H](C)NC(=O)[C@@H]2C[C@@H](O)CN2C(=O)[C@@H](NC(=O)COCCOCCCNC(=O)C[C@@H]2N=C(c3ccc(Cl)cc3)c3c(sc(C)c3C)-n3c(C)nnc32)C(C)(C)C)cc1 [Example 147] | < 0.01 | 98.5
18 | Cc1ncsc1-c1ccc([C@H](C)NC(=O)[C@@H]2C[C@@H](O)CN2C(=O)[C@@H](NC(=O)CCc2cc(F)cc(O[C@H]3C[C@H](NC(=O)C[C@@H]4N=C(c5ccc(Cl)cc5)c5c(sc(C)c5C)-n5c(C)nnc54)C3)c2)C(C)(C)C)cc1 [Example 173, (2S,4R)-1-[(2S)-2-(3-{3-fluoro-5-[(1,3-trans)-3-{2-[(9S)-7-(4-chlorophenyl)-4,5,13-trimethyl-3-thia-1,8,11,12-tetraazatricyclo[8.3.0.0^2,^6]trideca-2(6),4,7,10,12-pentaen-9-yl]acetamido}cyclobutoxy]phenyl}propanamido)-3,3-dimethylbutanoyl]-4-hydroxy-N-[(1S)-1-[4-(4-methyl-1,3-thiazol-5-yl)phenyl]ethyl]pyrrolidine-2-carboxamide] | < 0.01 | 98
19 | Cc1ncsc1-c1ccc([C@H](C)NC(=O)[C@@H]2C[C@@H](O)CN2C(=O)[C@@H](NC(=O)CCc2cc(OCCNC(=O)C[C@@H]3N=C(c4ccc(Cl)cc4)c4c(sc(C)c4C)-n4c(C)nnc43)ccc2F)C(C)(C)C)cc1 [Example 142, (2S,4R)-1-[(2S)-2-{3-[5-(2-{2-[(9S)-7-(4-chlorophenyl)-4,5,13-trimethyl-3-thia-1,8,11,12-tetraazatricyclo[8.3.0.0^2,^6]trideca-2(6),4,7,10,12-pentaen-9-yl]acetamido}ethoxy)-2-fluorophenyl]propanamido}-3,3-dimethylbutanoyl]-4-hydroxy-N-[(1S)-1-[4-(4-methyl-1,3-thiazol-5-yl)phenyl]ethyl]pyrrolidine-2-carboxamide] | < 0.01 | 98
20 | Cc1ncsc1-c1ccc(CNC(=O)[C@@H]2C[C@@H](O)CN2C(=O)[C@@H](NC(=O)COCCOCCOCCNC(=O)CC2N=C(c3ccc(Cl)cc3)c3c(sc(C)c3C)-n3c(C)nnc32)C(C)(C)C)cc1 (stereo partly drawn) [Example 98] | 0.01 to 0.1 | 100
21 | Cc1ncsc1-c1ccc(CNC(=O)[C@@H]2C[C@@H](O)CN2C(=O)[C@@H](NC(=O)COCCOCCOCCOCCOCCOCCNC(=O)C[C@@H]2N=C(c3ccc(Cl)cc3)c3c(sc(C)c3C)-n3c(C)nnc32)C(C)(C)C)cc1 [Example 4, (2S,4R)-1-[(2S)-2-(20-{2-[(9S)-7-(4-chlorophenyl)-4,5,13-trimethyl-3-thia-1,8,11,12-tetraazatricyclo[8.3.0.0^2,^6]trideca-2(6),4,7,10,12-pentaen-9-yl]acetamido}-3,6,9,12,15,18-hexaoxaicosanamido)-3,3-dimethylbutanoyl]-4-hydroxy-N-{[4-(4-methyl-1,3-thiazol-5-yl)phenyl]methyl}-pyrrolidine-2-carboxamide] | 0.1 to 1 | 62.2
